What all share (assay type): biochemical
For assay [1], the target named is human PI3K isoform gamma (p110 gamma) (Homo sapiens, UniProt P48736). Kind of assay: p110 isoform selectivity scintillation proximity assay (SPA), gamma isoform. The conditions noted are these: fold potency over gamma relative to alpha, calculated from IC50 values (SPA). The procedure: (§1) Binding of Formula Ia and Ib compounds from Tables 1a and 1b to purified preparations of p110 isoforms alpha, beta, delta, and gamma was measured by a Scintillation Proximity Assay (SPA) to determine binding activity (IC50 μMol) and selectivity of binding of beta, delta, and gamma isoforms relative to alpha (Example 365). These values are expressed in Table 2.
(§2) The ability of Formula Ia and Ib compounds from Tables 1a and 1b to inhibit the lipid kinase activity of purified preparations of human PI3K isoforms alpha, beta, delta, and gamma was determined by a radiometric scintillation proximity assay (SPA, GE Healthcare, Amersham Biosciences). Concentration dependent inhibition at 50% (IC50 μMol) was determined for all four isoforms […] and fold potency over beta, delta, and gamma relative to alpha was calculated for a selection of compounds in Table 2. Each compound has a p110 alpha IC50<1 μMol.

Assay [2] deals with human PI3K isoform beta (p110 beta) (Homo sapiens, UniProt P42338). The assay is described as follows: p110 isoform selectivity scintillation proximity assay (SPA), beta isoform. The conditions noted are these: fold potency over beta relative to alpha, calculated from IC50 values (SPA). The procedure:
as §1, §2

For assay [3], the target named is human PI3K isoform delta (p110 delta) (Homo sapiens, UniProt O00329). The assay is described as follows: p110 isoform selectivity scintillation proximity assay (SPA), delta isoform. The following applies: fold potency over delta relative to alpha, calculated from IC50 values (SPA). The procedure: as §1, §2
Sequence of human PI3K isoform delta (p110 delta) (O00329 whole entry, canonical isoform): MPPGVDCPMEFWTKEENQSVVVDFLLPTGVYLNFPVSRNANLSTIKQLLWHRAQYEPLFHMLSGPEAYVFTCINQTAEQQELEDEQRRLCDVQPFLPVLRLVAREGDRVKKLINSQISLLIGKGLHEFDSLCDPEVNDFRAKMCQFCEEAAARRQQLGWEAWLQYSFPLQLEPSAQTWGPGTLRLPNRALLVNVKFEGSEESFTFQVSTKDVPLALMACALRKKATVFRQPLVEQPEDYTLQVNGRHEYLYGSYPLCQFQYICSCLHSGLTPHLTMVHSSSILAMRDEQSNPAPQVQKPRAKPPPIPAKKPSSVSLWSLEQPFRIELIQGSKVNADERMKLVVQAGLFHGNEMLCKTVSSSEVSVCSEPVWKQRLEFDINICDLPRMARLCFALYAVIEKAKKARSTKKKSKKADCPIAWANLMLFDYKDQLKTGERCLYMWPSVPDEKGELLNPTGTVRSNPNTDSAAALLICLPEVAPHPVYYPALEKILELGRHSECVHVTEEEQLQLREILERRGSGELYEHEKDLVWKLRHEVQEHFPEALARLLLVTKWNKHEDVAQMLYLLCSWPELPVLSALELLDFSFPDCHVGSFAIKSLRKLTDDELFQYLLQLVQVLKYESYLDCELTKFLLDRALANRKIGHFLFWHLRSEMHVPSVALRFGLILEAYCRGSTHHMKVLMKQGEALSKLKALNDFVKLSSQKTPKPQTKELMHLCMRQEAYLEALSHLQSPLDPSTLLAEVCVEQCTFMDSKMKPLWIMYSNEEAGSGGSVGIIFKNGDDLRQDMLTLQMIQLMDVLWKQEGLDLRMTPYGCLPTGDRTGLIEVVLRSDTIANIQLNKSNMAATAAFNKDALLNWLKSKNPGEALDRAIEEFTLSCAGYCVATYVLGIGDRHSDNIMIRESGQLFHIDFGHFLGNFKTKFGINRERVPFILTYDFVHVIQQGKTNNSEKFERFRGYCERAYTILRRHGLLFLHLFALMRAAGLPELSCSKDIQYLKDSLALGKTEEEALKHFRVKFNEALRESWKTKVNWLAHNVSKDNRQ
Sequence of human PI3K isoform delta (p110 delta) (P27986 whole entry partner, canonical isoform): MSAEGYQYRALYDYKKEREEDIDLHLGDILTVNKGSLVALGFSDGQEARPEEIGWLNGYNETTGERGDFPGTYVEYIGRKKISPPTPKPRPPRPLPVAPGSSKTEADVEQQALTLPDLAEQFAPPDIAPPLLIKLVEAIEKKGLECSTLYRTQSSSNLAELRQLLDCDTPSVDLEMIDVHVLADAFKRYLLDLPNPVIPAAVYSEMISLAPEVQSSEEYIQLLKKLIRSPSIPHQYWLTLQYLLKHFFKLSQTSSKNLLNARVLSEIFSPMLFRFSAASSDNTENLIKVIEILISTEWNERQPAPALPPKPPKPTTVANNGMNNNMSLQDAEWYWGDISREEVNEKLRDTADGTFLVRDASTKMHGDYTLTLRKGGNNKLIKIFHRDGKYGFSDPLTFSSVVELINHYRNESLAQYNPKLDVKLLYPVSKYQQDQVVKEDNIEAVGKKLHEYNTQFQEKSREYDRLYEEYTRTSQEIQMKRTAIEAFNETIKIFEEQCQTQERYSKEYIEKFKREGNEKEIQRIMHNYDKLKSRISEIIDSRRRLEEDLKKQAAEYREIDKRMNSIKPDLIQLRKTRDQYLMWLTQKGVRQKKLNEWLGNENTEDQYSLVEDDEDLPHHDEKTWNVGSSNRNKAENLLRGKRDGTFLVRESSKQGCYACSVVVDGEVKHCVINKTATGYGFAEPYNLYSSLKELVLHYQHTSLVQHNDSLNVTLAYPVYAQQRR

Sequence of human PI3K isoform beta (p110 beta) (P42338 whole entry, canonical isoform): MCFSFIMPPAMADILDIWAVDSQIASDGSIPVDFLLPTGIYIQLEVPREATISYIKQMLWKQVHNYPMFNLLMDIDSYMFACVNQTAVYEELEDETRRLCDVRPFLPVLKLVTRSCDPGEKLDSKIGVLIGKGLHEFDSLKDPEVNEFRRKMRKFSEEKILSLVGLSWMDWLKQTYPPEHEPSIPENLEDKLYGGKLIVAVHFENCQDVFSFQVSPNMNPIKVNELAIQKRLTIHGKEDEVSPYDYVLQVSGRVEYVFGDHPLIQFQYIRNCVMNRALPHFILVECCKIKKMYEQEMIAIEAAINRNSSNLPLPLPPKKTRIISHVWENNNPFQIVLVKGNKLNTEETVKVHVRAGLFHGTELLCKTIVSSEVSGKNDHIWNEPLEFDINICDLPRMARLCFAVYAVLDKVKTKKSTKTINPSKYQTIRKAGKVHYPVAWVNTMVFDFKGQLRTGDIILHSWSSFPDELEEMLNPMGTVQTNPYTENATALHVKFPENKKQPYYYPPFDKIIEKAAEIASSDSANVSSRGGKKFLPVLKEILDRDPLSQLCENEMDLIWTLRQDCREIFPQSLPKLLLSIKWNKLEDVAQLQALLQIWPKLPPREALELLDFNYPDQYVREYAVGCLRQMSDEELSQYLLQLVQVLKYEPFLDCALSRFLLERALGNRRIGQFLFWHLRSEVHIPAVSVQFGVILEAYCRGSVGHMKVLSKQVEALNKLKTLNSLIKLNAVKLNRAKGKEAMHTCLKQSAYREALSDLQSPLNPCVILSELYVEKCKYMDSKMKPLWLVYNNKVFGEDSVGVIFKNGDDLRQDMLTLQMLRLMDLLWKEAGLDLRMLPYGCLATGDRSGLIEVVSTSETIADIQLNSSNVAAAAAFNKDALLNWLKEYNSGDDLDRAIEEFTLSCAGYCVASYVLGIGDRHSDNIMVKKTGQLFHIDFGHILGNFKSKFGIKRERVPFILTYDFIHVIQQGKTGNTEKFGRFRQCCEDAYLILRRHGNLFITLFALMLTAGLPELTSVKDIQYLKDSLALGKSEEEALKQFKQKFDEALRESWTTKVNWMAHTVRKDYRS
Sequence of human PI3K isoform beta (p110 beta) (P27986 whole entry partner, canonical isoform): as the sequence (P27986 whole entry partner, canonical isoform) above
Sequence of human PI3K isoform gamma (p110 gamma) (P48736 whole entry, canonical isoform): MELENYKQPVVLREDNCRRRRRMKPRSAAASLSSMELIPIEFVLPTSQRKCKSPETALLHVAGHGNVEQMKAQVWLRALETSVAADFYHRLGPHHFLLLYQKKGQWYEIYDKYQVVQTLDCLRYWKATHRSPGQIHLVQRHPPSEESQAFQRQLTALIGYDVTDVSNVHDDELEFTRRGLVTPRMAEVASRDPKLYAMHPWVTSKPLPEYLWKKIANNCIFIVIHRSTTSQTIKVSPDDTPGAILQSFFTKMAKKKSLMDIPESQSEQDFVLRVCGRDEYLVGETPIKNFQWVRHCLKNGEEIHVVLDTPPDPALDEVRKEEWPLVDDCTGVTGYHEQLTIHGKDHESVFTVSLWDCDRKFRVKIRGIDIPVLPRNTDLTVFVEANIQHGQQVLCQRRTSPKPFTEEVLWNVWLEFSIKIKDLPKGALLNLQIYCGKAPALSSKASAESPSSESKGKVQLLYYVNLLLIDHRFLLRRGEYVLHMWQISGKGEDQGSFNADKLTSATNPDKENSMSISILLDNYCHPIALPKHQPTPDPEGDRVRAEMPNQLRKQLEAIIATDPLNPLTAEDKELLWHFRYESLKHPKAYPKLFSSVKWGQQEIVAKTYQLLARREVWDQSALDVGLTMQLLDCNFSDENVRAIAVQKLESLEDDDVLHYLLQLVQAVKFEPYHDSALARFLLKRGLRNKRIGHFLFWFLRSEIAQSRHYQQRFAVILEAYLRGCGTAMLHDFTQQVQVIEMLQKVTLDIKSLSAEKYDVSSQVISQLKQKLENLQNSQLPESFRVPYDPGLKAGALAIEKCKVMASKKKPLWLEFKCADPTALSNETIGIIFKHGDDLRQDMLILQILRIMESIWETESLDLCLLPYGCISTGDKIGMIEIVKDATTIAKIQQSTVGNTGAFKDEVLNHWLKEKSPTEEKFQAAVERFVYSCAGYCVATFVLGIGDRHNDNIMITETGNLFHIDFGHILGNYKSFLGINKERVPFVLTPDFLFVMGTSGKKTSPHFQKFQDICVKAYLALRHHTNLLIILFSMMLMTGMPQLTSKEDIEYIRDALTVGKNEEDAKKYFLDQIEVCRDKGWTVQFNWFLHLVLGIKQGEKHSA

Consider `Cc1c(-c2cccc(S(C)(=O)=O)c2)sc2c(N3CCOCC3)nc(-c3cnc4[nH]ccc4c3)nc12` [Compound 395, 7-methyl-6-(3-(methylsulfonyl)phenyl)-4-morpholino-2-(1H-pyrrolo[2,3-b]pyridin-5-yl)thieno[3,2-d]pyrimidine], for which the alpha/gamma in assay [1] is greater than 10. Besides, the alpha/beta in assay [2] was greater than 10. Besides, the alpha/delta in assay [3] is listed as greater than 10.

`CS(=O)(=O)N1CCC(C(O)c2cc3nc(-c4cccc5[nH]ncc45)nc(N4CCOCC4)c3s2)CC1` (stereo not drawn) [Compound 353, (2-(1H-indazol-4-yl)-4-morpholinothieno[3,2-d]pyrimidin-6-yl)(4-N-methylsulfonylpiperidin-4-yl)methanol]: the alpha/gamma in assay [1] is reported as greater than 10. The alpha/beta in assay [2] was less than 10. Further, the alpha/delta in assay [3] is less than 10.

On to `C[C@H](O)CNCc1cc2nc(-c3cccc4[nH]ncc34)nc(N3CCOCC3)c2s1` [Compound 205, (S)-1-((2-(1H-indazol-4-yl)-4-morpholinothieno[3,2-d]pyrimidin-6-yl)methylamino)propan-2-ol], for which, in assay [1], the alpha/gamma is recorded as greater than 10. Also, in assay [2], the alpha/beta was less than 10. Also, in assay [3], the alpha/delta is listed as less than 10.

On to `CCNC(=O)c1cc2nc(-c3cccc4[nH]ncc34)nc(N3CCOCC3)c2s1` [Compound 170, N-ethyl-2-(1H-indazol-4-yl)-4-morpholinothieno[3,2-d]pyrimidine-6-carboxamide], for which the alpha/gamma in assay [1] was less than 10. Also, the alpha/beta in assay [2] is recorded as less than 10. In addition, the alpha/delta in assay [3] was less than 10.

Turning to `CC(=O)Nc1cccc(-c2cc3nc(-c4cccc5[nH]ncc45)nc(N4CCOCC4)c3s2)c1` [Compound 238, N-(3-(2-(1H-indazol-4-yl)-4-morpholinothieno[3,2-d]pyrimidin-6-yl)phenyl)acetamide], in assay [1], the alpha/gamma is on record as greater than 10. Further, the alpha/beta in assay [2] is given as greater than 10. In assay [3], the alpha/delta is recorded as less than 10.

Turning to `CN(C)C(=O)c1cc2nc(-c3cccc4[nH]ncc34)nc(N3CCOCC3)c2s1` [Compound 263, 2-(1H-indazol-4-yl)-N,N-dimethyl-4-morpholinothieno[3,2-d]pyrimidine-6-carboxamide], the alpha/gamma in assay [1] was greater than 10. Moreover, the alpha/beta in assay [2] is recorded as less than 10. In assay [3], the alpha/delta is given as less than 10.

On to `c1cc(-c2nc(N3CCOCC3)c3sc(Cn4ccnc4)cc3n2)c2cn[nH]c2c1` [Compound 312, 6-((1H-imidazol-1-yl)methyl)-2-(1H-indazol-4-yl)-4-morpholinothieno[3,2-d]pyrimidine], for which, in assay [1], the alpha/gamma is greater than 10. The alpha/beta in assay [2] is listed as less than 10. Moreover, the alpha/delta in assay [3] was less than 10.

Take `OC1(c2cc3nc(-c4cccc5[nH]ncc45)nc(N4CCOCC4)c3s2)CCC1` [Compound 133, 1-(2-(1H-indazol-4-yl)-4-morpholinothieno[3,2-d]pyrimidin-6-yl)cyclobutanol]: the alpha/gamma in assay [1] is listed as greater than 10. In addition, the alpha/beta in assay [2] is less than 10. Besides, the alpha/delta in assay [3] is less than 10.

Turning to `CNC(=O)c1cccc(-c2cc3nc(-c4cccc5[nH]ncc45)nc(N4CCOCC4)c3s2)c1` [Compound 101, 3-(2-(1H-indazol-4-yl)-4-morpholinothieno[3,2-d]pyrimidin-6-yl)-N-methylbenzamide], the alpha/gamma in assay [1] was greater than 10. Further, the alpha/beta in assay [2] was greater than 10. In assay [3], the alpha/delta is listed as less than 10.

Consider `COC/C=C/c1cc2nc(-c3cccc4[nH]ncc34)nc(N3CCOCC3)c2s1` [Compound 334], for which the alpha/gamma in assay [1] is greater than 10. Moreover, in assay [2], the alpha/beta is greater than 10. In assay [3], the alpha/delta is less than 10.

For `CC(C)(O)c1cc2nc(-c3cnc4[nH]ccc4c3)nc(N3CCOCC3)c2s1` [Compound 422, 2-(4-morpholino-2-(1H-pyrrolo[2,3-b]pyridin-5-yl)thieno[3,2-d]pyrimidin-6-yl)-propan-2-ol], the alpha/gamma in assay [1] is greater than 10. Moreover, the alpha/beta in assay [2] is on record as greater than 10. In addition, the alpha/delta in assay [3] is on record as less than 10.

`CC(C)(NC(=O)c1ccccc1)c1cc2nc(-c3cccc4[nH]ncc34)nc(N3CCOCC3)c2s1` [Compound 388, N-(2-(2-(1H-indazol-4-yl)-4-morpholinothieno[3,2-d]pyrimidin-6-yl)propan-2-yl)benzamide]: in assay [1], the alpha/gamma is recorded as greater than 10. In addition, the alpha/beta in assay [2] was greater than 10. Also, in assay [3], the alpha/delta is given as less than 10.

Take `C[C@H](O)CNC(=O)c1cccc(-c2cc3nc(-c4cccc5[nH]ncc45)nc(N4CCOCC4)c3s2)c1` [Compound 336, 3-(2-(1H-indazol-4-yl)-4-morpholinothieno[3,2-d]pyrimidin-6-yl)-N-((S)-2-hydroxypropyl)benzamide]: in assay [1], the alpha/gamma is reported as greater than 10. The alpha/beta in assay [2] is listed as greater than 10. Besides, the alpha/delta in assay [3] was less than 10.

Regarding `CS(=O)(=O)c1cccc(-c2cc3nc(-c4cccc5[nH]ncc45)nc(N4CCOCC4)c3s2)c1` [Compound 265, 2-(1H-indazol-4-yl)-6-(3-(methylsulfonyl)phenyl)-4-morpholinothieno[3,2-d]pyrimidine], in assay [1], the alpha/gamma is greater than 10. Also, in assay [2], the alpha/beta was greater than 10. The alpha/delta in assay [3] is on record as less than 10.

For the molecule `OCc1cccc(-c2cc3nc(-c4cccc5[nH]ncc45)nc(N4CCOCC4)c3s2)c1` [Compound 237, (3-(2-(1H-indazol-4-yl)-4-morpholinothieno[3,2-d]pyrimidin-6-yl)phenyl)methanol], the alpha/gamma in assay [1] is greater than 10. Besides, the alpha/beta in assay [2] was greater than 10. Besides, the alpha/delta in assay [3] is reported as less than 10.

As for `CN(Cc1cc2nc(-c3cccc4[nH]ncc34)nc(N3CCOCC3)c2s1)C(=O)c1ccccc1` [Compound 390, N-((2-(1H-indazol-4-yl)-4-morpholinothieno[3,2-d]pyrimidin-6-yl)methyl)-N-methylbenzamide], the alpha/gamma in assay [1] is reported as less than 10. Besides, the alpha/beta in assay [2] is less than 10. Besides, in assay [3], the alpha/delta is less than 10.

On to `O=C(NOCC1CC1)c1cc2nc(-c3cccc4[nH]ncc34)nc(N3CCOCC3)c2s1` [Compound 202, N-(cyclopropylmethoxy)-2-(1H-indazol-4-yl)-4-morpholinothieno[3,2-d]pyrimidine-6-carboxamide], for which, in assay [1], the alpha/gamma was greater than 10. Further, the alpha/beta in assay [2] is reported as less than 10. The alpha/delta in assay [3] was less than 10.

As for `c1cc2cc(-c3nc(N4CCOCC4)c4sc(-c5ccc(N6CCOCC6)nc5)cc4n3)cnc2[nH]1` [Compound 428, 4-morpholino-6-(6-morpholinopyridin-3-yl)-2-(1H-pyrrolo[2,3-b]pyridin-5-yl)thieno[3,2-d]pyrimidine], the alpha/gamma in assay [1] is greater than 10. For the same molecule, the alpha/beta in assay [2] was greater than 10. Also, the alpha/delta in assay [3] is greater than 10.

`c1cc(-c2nc(N3CCOCC3)c3sc(-c4cn[nH]c4)cc3n2)c2cn[nH]c2c1` [Compound 203, 2-(1H-indazol-4-yl)-4-morpholino-6-(1H-pyrazol-4-yl)thieno[3,2-d]pyrimidine]: the alpha/gamma in assay [1] is recorded as greater than 10. In assay [2], the alpha/beta is on record as less than 10. Moreover, the alpha/delta in assay [3] is recorded as less than 10.

On to `O=S(=O)(NCCN1CCCCC1)c1cc2nc(-c3cccc4[nH]ncc34)nc(N3CCOCC3)c2s1` [Compound 218, 6-(2-piperidinylethylaminosulfonyl)-2-(1H-indazol-4-yl)-4-morpholinothieno[3,2-d]pyrimidine], for which the alpha/gamma in assay [1] is listed as greater than 10. Moreover, in assay [2], the alpha/beta is on record as greater than 10. Also, in assay [3], the alpha/delta is less than 10.

Source of the values: patent US8450315B2, “Phosphoinositide 3-kinase inhibitor compounds and methods of use” (Genentech, Inc., priority 2006, dated 2013).
